The nature of series [1]: Parallel Artificial Membrane Permeability Assay (PAMPA). It counts as in vitro ADME. The procedure:
PAMPA (Parallel Artificial Membrane Permeability Assay) is a first-line permeability screen for drug candidates. This assay mimics the transcellular absorption conditions using an artificial phospholipid membrane and generates a permeability value that can be used for compound ranking and optimization as well as input parameters for in silico models to predict intestinal absorption.
Permeation experiments are carried out in hydrophobic PVDF 96-well microtiter filter plates (MultiScreen Filter Plate, Millipore, #MAIPN4550). Each well is coated with PVDF membrane, which is prepared with 5 μL Dodecane (Sigma, D221104) that contains 1% lecithin (Sigma, P3556-1G).
The typical PAMPA experimental protocol is as follows: The donor plate is placed on a Teflon acceptor plate that has been pre-filled with […] of 100 mM PBS buffer (2.6 g KH2PO4 and 18.5 g K2HPO4·3H2O are dissolved in about 1000 mL of ultra-pure water and mixed thoroughly. The pH is adjusted to 7.40±0.05, using either 1 M sodium hydroxide or 1M hydrochloric acid) containing 5% DMSO. The filter on the bottom of each acceptor well is filled with 300 μL of 100 mM PBS buffer (2.6 g KH2PO4 and 18.5 g K2HPO4·3H2O are dissolved in about 1000 mL of ultra-pure water, mixed thoroughly. The pH was adjusted to 7.40±0.05, using either 1 M sodium hydroxide or 1M hydrochloric acid). The resulting sandwich is incubated at room temperature under constant shaking (300 rpm) for 4 hours. The sandwich is then disassembled. Before incubation, spike 20 μL dosing solution and mix with 250 μL PBS and 130 μL quench solution (acetonitrile) as TO sample. After incubation, collect 270 μL solutions from acceptor chamber, followed by the addition of 130 μL acetonitrile. Collect 20 μL solution from donor chamber and add 250 μL PBS and 130 μL acetonitrile. The concentration of compound in all samples are determined by LC-MS/MS and the equations for determining the permeability (Pe, 10^−6 cm/s) are as follows.
VD is the volume of the donor well; VR is the volume of the acceptor well; Area is the active surface area of membrane; Time is the incubation time (14,400 s in this assay); CR and CD are the concentrations of compound in acceptor and donor solutions, respectively, at the completion of the assay; C0 is the concentration of compound in donor solution before incubation.
The main readout of the PAMPA assay is the permeability value Pe expressed in 10^−6 cm/s. Secondary readouts determined are the amounts of compound in the donor and acceptor compartments as well as compound retention in the membrane. Depending on the permeation rate and the membrane retention, compounds are classified as “low” (Pe<0.2 and membrane retention<20%) or “medium & high” (Pe>=0.2; or Pe<0.2 and membrane retention>=20%). Each sample is measured in triplicate; the standard deviation is determined for the permeation constant Pe.
(The PAMPA barrier holds no transporters, so it reflects passive diffusion.)

For a further series, the target named is human TLR8 (Homo sapiens (Human), UniProt Q9NR97). Put plainly: HEK293-Blue-hTLR-8 cells assay. It counts as cell-based. The conditions noted are these: HEK293-Blue-hTLR8 cells, R848 stimulation, 20 hrs, SEAP reporter; read-out: HEK/hTLR8 IC50. The text has this:
A stable HEK293-Blue-hTLR-8 cell line was purchased from InvivoGen (Cat. #: hkb-htlr8, San Diego, Calif., USA). These cells were originally designed for studying the stimulation of human TLR8 by monitoring the activation of NF-κB. A SEAP (secreted embryonic alkaline phosphatase) reporter gene was placed under the control of the IFN-β minimal promoter fused to five NF-κB and AP-1-binding sites. The SEAP was induced by activating NF-κB and AP-1 via stimulating HEK-Blue hTLR8 cells with TLR8 ligands. Therefore the reporter expression was declined by TLR8 antagonist under the stimulation of a ligand, such as R848, for incubation of 20 hrs. The cell culture supernatant SEAP reporter activity was determined using QUANTI-Blue™ kit (Cat. #: rep-gb1, Invivogen, San Diego, Ca, USA) at a wavelength of 640 nm, a detection medium that turns purple or blue in the presence of alkaline phosphatase.
HEK293-Blue-hTLR8 cells were incubated at a density of 250,000˜450,000 cells/mL in a volume of 170 μL in a 96-well plate in Dulbecco's Modified Eagle's medium (DMEM) containing 4.5 g/L glucose, 50 U/mL penicillin, […], […], 2 mM L-glutamine, 10% (v/v) heat-inactivated fetal bovine serum with addition of 20 μL test compound in a serial dilution in the presence of final DMSO at 1% and 10 μL of 60 uM R848 in above DMEM, perform incubation under 37° C. in a CO2 incubator for 20 hrs. Then 20 μL of the supernatant from each well was incubated with 180 μL Quanti-blue substrate solution at 37° C. for 2 hrs and the absorbance was read at 620655 nm using a spectrophotometer. The signaling pathway that TLR8 activation leads to downstream NF-κB activation has been widely accepted, and therefore similar reporter assay was modified for evaluating TLR8 antagonist.

pIC50: −log10 of the molar value.

Sequence of human TLR8 (Q9NR97 27-1041): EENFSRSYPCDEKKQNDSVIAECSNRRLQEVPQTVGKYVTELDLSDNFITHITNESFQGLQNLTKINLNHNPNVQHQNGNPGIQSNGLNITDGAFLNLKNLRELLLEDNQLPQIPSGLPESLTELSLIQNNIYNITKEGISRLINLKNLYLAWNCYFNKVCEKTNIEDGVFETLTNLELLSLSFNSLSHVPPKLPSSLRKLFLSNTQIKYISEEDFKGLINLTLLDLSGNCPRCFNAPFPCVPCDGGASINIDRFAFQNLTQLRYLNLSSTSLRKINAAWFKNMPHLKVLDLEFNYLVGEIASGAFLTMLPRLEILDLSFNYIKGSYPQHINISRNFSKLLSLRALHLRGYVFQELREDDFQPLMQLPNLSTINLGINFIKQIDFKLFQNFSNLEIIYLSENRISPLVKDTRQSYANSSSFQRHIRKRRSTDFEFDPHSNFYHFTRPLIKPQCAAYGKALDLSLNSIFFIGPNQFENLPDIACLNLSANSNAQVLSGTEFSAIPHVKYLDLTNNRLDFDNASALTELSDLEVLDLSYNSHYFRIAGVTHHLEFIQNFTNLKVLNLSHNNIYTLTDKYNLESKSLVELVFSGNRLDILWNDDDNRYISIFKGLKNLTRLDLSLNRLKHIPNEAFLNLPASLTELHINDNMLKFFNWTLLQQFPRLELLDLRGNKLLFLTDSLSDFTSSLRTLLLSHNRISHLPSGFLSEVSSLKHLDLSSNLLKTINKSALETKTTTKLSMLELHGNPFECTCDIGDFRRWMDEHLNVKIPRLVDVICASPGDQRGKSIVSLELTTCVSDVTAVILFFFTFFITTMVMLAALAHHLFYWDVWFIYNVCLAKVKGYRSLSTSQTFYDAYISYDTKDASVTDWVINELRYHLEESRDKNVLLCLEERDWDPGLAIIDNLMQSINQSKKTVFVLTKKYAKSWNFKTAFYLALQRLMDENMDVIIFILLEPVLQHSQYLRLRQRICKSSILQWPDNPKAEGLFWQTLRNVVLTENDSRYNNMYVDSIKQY

As for `CCc1cc(-c2cc(C)c3nccn3c2)cnc1N1CCC2(CCNCC2)CC1` [Example 22, 3-[3-ethyl-5-(8-methylimidazo[1,2-a]pyridin-6-yl)-2-pyridyl]-3,9-diazaspiro[5.5]undecane], the “Membrane Retention” value in series [1] (PAMPA, pH 7.40, 4 hours) amounted to 26.45%. Further, the Papp at 4 h in series [1] (PAMPA, pH 7.4, pH 7.40, 4 hours, room temperature, read-out: PAMPA Pe) was 0.5 ×10⁻⁶ cm/s. In addition, the PAMPA category result in series [1] (classified by Pe and membrane retention) is “medium & high (“medium & high” (Pe>=0.2; or Pe<0.2 and membrane retention>=20%))”. For the same compound, the pIC50 on human TLR8 is 7.40.

For the origin of these results see US20230279001A1, “IMIDAZO[1,2-A]PYRIDINE COMPOUNDS FOR THE TREATMENT OF AUTOIMMUNE DISEASE” (Hoffmann-La Roche Inc., priority 2020, published 2023).
